Results from article PMC6413339 (EBioMedicine, 2019).
Like-named read-outs stand apart in the source and are kept apart here.

Assays:
Src = target: T1, Src (Homo sapiens, UniProt P12931); experiment: Cell-free kinase assay (Reaction Biology, ADP-Glo); type: biochemical; settings: inhibitor 500 nM; 100 μM ATP; average of duplicate
T1 construct: purchased Invitrogen PR4336E
Method: (§1) Cell-free kinase activity assays were performed at Reaction Biology Corporation. Briefly, kinases were incubated with substrates, 100 μM ATP and a 3-fold serial dilution of compounds starting at 1 μM. DMSO was used as control. […] Experiments were performed in duplicates. The concentrations of kinases and substrates used in the assays are indicated on Table S1. Kinase activity was quantified using the ADP-Glo™ Kinase Assay System (Promega, Madison, WI) following the manufacturer's recommendations.

FLT3 = target: T2, FLT3 (Homo sapiens, UniProt P36888); experiment: Cell-free kinase assay, single dose (Reaction Biology, ADP-Glo); type: biochemical; settings: inhibitor 500 nM; 100 μM ATP; average of duplicate
T2 construct: purchased Invitrogen PV3182
T2 sequence (P36888 564-993 limits assumed): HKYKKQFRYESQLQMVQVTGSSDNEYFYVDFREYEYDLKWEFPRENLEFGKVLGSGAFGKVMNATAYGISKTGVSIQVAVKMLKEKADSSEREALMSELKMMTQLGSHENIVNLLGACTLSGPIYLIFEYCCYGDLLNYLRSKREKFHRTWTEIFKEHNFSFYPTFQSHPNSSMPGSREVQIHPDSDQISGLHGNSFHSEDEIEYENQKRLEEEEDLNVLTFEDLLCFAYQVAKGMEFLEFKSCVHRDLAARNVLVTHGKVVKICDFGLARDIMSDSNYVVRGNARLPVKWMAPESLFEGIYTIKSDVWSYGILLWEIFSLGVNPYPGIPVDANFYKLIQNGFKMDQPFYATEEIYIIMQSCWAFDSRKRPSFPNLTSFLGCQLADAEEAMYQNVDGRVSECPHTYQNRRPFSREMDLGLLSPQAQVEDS
Method: as §1, with “Briefly, kinases were incubated with substrates, 100 μM ATP and a 3-fold serial dilution of compounds starting at 1 μM.” left out

[1] = test system: MOLM-14 (ITD, D835Y) cells; experiment: Antiproliferative activity (CellTitre-Blue, 72 h); type: cell-based, human; settings: 72 h incubation, triplicates, read-out: IC50 (mean ±SD, nM) MOLM-14 (ITD, D835Y)
Method: (§2) Cells were seeded into 96-well tissue culture-treated plates at 2.0 × 10^4 cells/mL for up to 24 h. DMSO stock solutions of compounds were serially diluted first in DMSO and subsequently into RPMI before being added to the cell cultures in triplicates, with 10 μM being the highest tested concentration. The plates were incubated for 72 h as above. The CellTitre-Blue assay (Promega, Madison WI) was then added to the cultures and incubated a further 4 h before the fluorescence measured following the manufacturers recommendations. The fluorescence data from compounds were normalized to that DMSO and the resulting data fitted to a non-linear regression equation to obtain IC50 using GraphPad Prism 5.0 Software (La Jolla, CA, USA).

[2] = test system: MOLM-14 (ITD, F691 L) cells; experiment: Antiproliferative activity (CellTitre-Blue, 72 h); type: cell-based, human
Method: as §2

MOLM-14 cells = experiment: Antiproliferative activity (CellTitre-Blue, 72 h); type: cell-based, human; settings: 72 h incubation, triplicates, read-out: IC50 (mean ±SD, nM) MOLM-14
Method: as §2

MV4–11 cells = experiment: Antiproliferative activity (CellTitre-Blue, 72 h); type: cell-based, human; settings: for IC50: 72 h incubation, triplicates, read-out: IC50 (mean ±SD, nM) MV4–11
Method: as §2

MV4–11-luc cells = experiment: In vivo efficacy, orthotopic human AML model; settings: 25 mg/kg i.p. three times a week (MWF); NSG or NRG mice
Method: The in vivo efficacy of compounds was assessed in an orthotopic human AML model in NSG (NOD scid gamma, NOD-scid IL2Rg^null) mice that were bred at University of Maryland Baltimore (mating pairs acquired from Jackson Laboratories; Maine). […]. Three days later, engraftment was assessed by imaging on a Xenogen IVIS-2 Imaging System (Alameda) after an intraperitoneal (IP) injection of 150 mg/kg luciferin. Mice were sorted into four or five groups (n = 5) so that mean intensity (i.e., disease burden) was equal. Dosing started on day of sorting. Compounds were dissolved in 85% PBS (pH 7.4) buffer containing 10% DMSO and 5% Cremophore. The vehicle (buffer without compounds) was used as control. Mice were injected 3 to 5 days per week via IP injection. Mice were weighed on day of dosing and imaged once per week. […]. All mice were housed in a 12-h light/dark cycle with access to food and water ad libitum. Studies were performed with Institutional Animal Care and Use Committee (UMB and Purdue University) approval.
[…]. Female mice were dosed daily for 5 days via intraperitoneal injection and then monitored for an additional week for weight loss, a sign of toxicity in mice. […] To evaluate the anti-leukemic efficacy in vivo, six-week-old female NSG or NRG mice were injected intravenously with FLT3-ITD expressing acute myeloid leukemia cells (MV4–11), expressing luciferase. […] Dosing (i.p) with the compounds was then started. The mice were dosed with 25 mg/kg of the compounds three times a week (MWF). […] […].

[3] = Homo sapiens, MOLM-14, 72 h, 72 h incubation, triplicates, read-out: IC50 (mean ±SD, nM) MOLM-14 (ITD, F691 L)

T1 sequence (P12931 whole entry): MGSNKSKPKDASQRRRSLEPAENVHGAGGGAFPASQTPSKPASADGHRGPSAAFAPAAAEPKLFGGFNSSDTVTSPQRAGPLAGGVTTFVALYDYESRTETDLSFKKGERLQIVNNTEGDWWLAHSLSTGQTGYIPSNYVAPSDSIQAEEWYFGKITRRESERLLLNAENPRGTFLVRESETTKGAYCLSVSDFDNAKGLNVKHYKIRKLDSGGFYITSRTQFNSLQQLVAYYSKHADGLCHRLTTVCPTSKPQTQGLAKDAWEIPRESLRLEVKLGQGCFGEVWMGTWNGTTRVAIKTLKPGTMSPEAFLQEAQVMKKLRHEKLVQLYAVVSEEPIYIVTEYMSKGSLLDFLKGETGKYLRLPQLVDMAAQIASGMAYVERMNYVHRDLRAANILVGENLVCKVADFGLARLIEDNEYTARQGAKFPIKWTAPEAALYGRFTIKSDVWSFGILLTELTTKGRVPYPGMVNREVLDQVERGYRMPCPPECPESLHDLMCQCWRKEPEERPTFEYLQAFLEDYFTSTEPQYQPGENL

| SMILES | inhibition at 0.5 µM (Src) [%] | inhibition at 0.5 µM (FLT3) [%] | IC50 ([1]; Homo sapiens, MOLM-14, 72 h) [nM] | IC50 [2, 3] [nM] | IC50 (MOLM-14 cells; Homo sapiens, MOLM-14) [nM] | also measured |
| --- | --- | --- | --- | --- | --- | --- |
| Cc1ccc(C(=O)Nc2ccc(CN3CCN(C)CC3)c(C(F)(F)F)c2)cc1C#Cc1cccnc1N [Compound 1] | 99 | 96 | – | – | – | – |
| Cc1ccc(C(=O)Nc2ccc(CN3CCN(C)CC3)c(C(F)(F)F)c2)cc1C#Cc1ccc(N)nc1 [Compound 2] | 99 | 99 | – | – | – | – |
| Cc1ccc(C(=O)Nc2ccc(CN3CCN(C)CC3)c(C(F)(F)F)c2)cc1C#Cc1nc(Br)cnc1N [Compound 3] | 99 | 81 | – | – | – | – |
| Cc1ccc(C(=O)Nc2ccc(CN3CCN(C)CC3)c(C(F)(F)F)c2)cc1C#Cc1c(N)ncc2ccccc12 [Compound 4] | 100 | 93 | – | – | – | – |
| Cc1ncc(C(=O)Nc2ccc(CN3CCN(C)CC3)c(C(F)(F)F)c2)cc1C#Cc1c(N)ncc2ccccc12 [Compound 5] | 100 | 99 | 13 ± 0.4 | 1.5 ± 0.1 | 2.8 ± 0.02 | IC50 (MV4–11 cells; Homo sapiens, MV4-11, 72 h): 0.4 ± 0.004 nM; reduction in leukemia burden (MV4–11-luc cells): > 99% |
| Cc1ccc(C(=O)Nc2ccc(CN3CCN(C)CC3)c(C(F)(F)F)c2)cc1C#Cc1c(N)ncc2ccc(F)cc12 [Compound 6] | 99 | 90 | – | – | – | – |
| Cc1ccc(C(=O)Nc2ccc(CN3CCN(C)CC3)c(C(F)(F)F)c2)cc1C#Cc1c(N)ncc2ccc(Cl)cc12 [Compound 8] | – | 97 | – | – | – | IC50 (MV4–11 cells; Homo sapiens, MV4-11, 72 h): ~0.5 nM |
| Cc1ncc(C(=O)Nc2ccc(CN3CCN(C)CC3)c(C(F)(F)F)c2)cc1C#Cc1c(N)ncc2ccc(Cl)cc12 [Compound 9] | 98 | 98 | 10.4 ± 0.3 | 6.9 ± 0.05 | 2.3 ± 0.1 | IC50 (MV4–11 cells): 0.4 ± 0.04 nM; IC50 (MV4–11 cells; Homo sapiens, MV4-11, 72 h): ~0.5 nM |
| Cc1cnc(C(=O)Nc2ccc(CN3CCN(C)CC3)c(C(F)(F)F)c2)cc1C#Cc1c(N)ncc2ccc(Cl)cc12 [Compound 10] | 93 | 75 | – | – | – | – |
| Cc1ccc(C(=O)Nc2ccc(CN3CCN(C)CC3)c(C(F)(F)F)c2)nc1C#Cc1c(N)ncc2ccc(Cl)cc12 [Compound 11] | 16 | 43 | ≤ 15 | ≤ 15 | – | – |
| Cc1ccc2cnc(N)c(C#Cc3cc(C(=O)Nc4ccc(CN5CCN(C)CC5)c(C(F)(F)F)c4)ccc3C)c2c1 [Compound 12] | 100 | 98 | – | – | – | – |
| Cc1ccc2cnc(N)c(C#Cc3cc(C(=O)Nc4ccc(CN5CCN(C)CC5)c(C(F)(F)F)c4)cnc3C)c2c1 [Compound 13] | 98 | 100 | 4.7 ± 0.03 | 1.1 ± 0.04 | 1.4 ± 0.03 | IC50 (MV4–11 cells; Homo sapiens, MV4-11, 72 h): 0.4 ± 0.006 nM |
| COc1ccc2c(N)ncc(C#Cc3cc(C(=O)Nc4ccc(CN5CCN(C)CC5)c(C(F)(F)F)c4)cnc3C)c2c1 [Compound 14] | 99 | 98 | – | – | – | – |
| Cc1ccc(C(=O)Nc2ccc(CN3CCN(C)CC3)c(C(F)(F)F)c2)cc1C#Cc1cnc(N)c2ccccc12 [Compound 15] | 97 | 100 | ≤ 15 | ≤ 15 | – | – |
| Cc1ncc(C(=O)Nc2ccc(CN3CCN(C)CC3)c(C(F)(F)F)c2)cc1C#Cc1cnc(N)c2ccccc12 [Compound 16] | 100 | 98 | – | – | – | – |
| Cc1ncc(C(=O)Nc2ccc(CN3CCN(C)CC3)c(C(F)(F)F)c2)cc1C#Cc1cnc(N)c2ccc(F)cc12 [Compound 17] | 98 | 98 | – | – | – | – |
| COc1ccc2cnc(N)c(C#Cc3cc(C(=O)Nc4ccc(CN5CCN(C)CC5)c(C(F)(F)F)c4)cnc3C)c2c1 [Compound 18] | – | – | – | – | – | %Src inhibition (Src): 98%; %FLT3 inhibition (FLT3): 97%; IC50 [1]: 11.1 ± 0.08 nM; IC50 ([2]; 72 h incubation, triplicates, read-out: IC50 (mean ±SD, nM) MOLM-14 (ITD, F691 L)): 1.1 ± 0.04 nM; IC50 ([2]; Table S2, superscript g, the values are: IC50): 1.1 nM; IC50 (MOLM-14 cells): 0.2 ± 0.002 nM; IC50 (MV4–11 cells): 0.2 ± 0.001 nM; IC50 MV4-11 (MV4–11 cells; Table S2, superscript d, the values are: IC50): 0.2 nM |
| Cc1ccc(C(=O)Nc2ccc(CN3CCN(C)CC3)c(C(F)(F)F)c2)cc1C#Cc1cnc(N)c2ncccc12 [Compound 19] | 98 | 99 | – | – | – | – |
| Cc1ncc(C(=O)Nc2ccc(CN3CCN(C)CC3)c(C(F)(F)F)c2)cc1C#Cc1cnc(NC2CC2)c2ncccc12 [Compound 21] | 20 | 80 | – | – | – | – |
| Cc1ccc(C(=O)Nc2ccc(CN3CCN(C)CC3)c(C(F)(F)F)c2)cc1C#Cc1cncc2ccccc12 [Compound 22] | 100 | 98 | – | – | – | – |
| Cc1ccc(C(=O)Nc2ccc(CN3CCN(C)CC3)c(C(F)(F)F)c2)cc1C#Cc1cncc2ncccc12 [Compound 23] | 99 | 99 | – | – | – | – |
| Cc1ncc(C(=O)Nc2ccc(CN3CCN(C)CC3)c(C(F)(F)F)c2)cc1C#Cc1cncc2ncccc12 [Compound 24] | 98 | 100 | 3 ± 0.3 | 1.8 ± 0.08 | 0.2 ± 0.01 | IC50 (MV4–11 cells; Homo sapiens, MV4-11, 72 h): 0.2 ± 0.009 nM |
| CC1(COc2ccc3c(c2)ncn3-c2ccc3cccc(N4CCC(N)CC4)c3n2)COC1 [Crenolanib, reference compound] | – | 99 | 6.6 ± 0.03 | 15.6 ± 0.4 | 4.5 ± 0.8 | IC50 (MV4–11 cells; Homo sapiens, MV4-11, 72 h): 3.1 ± 0.06 nM |
| CO[C@@H]1[C@H](N(C)C(=O)c2ccccc2)C[C@H]2O[C@]1(C)n1c3ccccc3c3c4c(c5c6ccccc6n2c5c31)C(=O)NC4 [Midostaurin, reference compound] | – | – | – | – | 16.1 ± 0.02 | – |
| Cc1ccc(C(=O)Nc2ccc(CN3CCN(C)CC3)c(C(F)(F)F)c2)cc1C#Cc1cnc2cccnn12 [Ponatinib, reference compound] | – | – | – | – | 0.5 ± 0.1 | IC50 ([1]; Homo sapiens, MOLM-14): 52.6 ± 0.3 nM; IC50 ([2]; Homo sapiens, MOLM-14, 72 h incubation, triplicates, read-out: IC50 (mean ±SD, nM) MOLM-14 (ITD, F691 L)): 6.8 ± 0.03 nM; IC50 (MV4–11 cells; Homo sapiens, MV4-11): 0.1 ± 0.001 nM |
| CC(C)(C)c1cc(NC(=O)Nc2ccc(-c3cn4c(n3)sc3cc(OCCN5CCOCC5)ccc34)cc2)no1 [Quizartinib, reference compound] | – | – | 23 ± 0.5 | 48.5 ± 0.6 | 0.5 ± 0.02 | IC50 (MV4–11 cells; Homo sapiens, MV4-11, 72 h): 0.4 ± 0.02 nM |
